Source: PubChem BioAssay (NCI)
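Each compound was tested at five concentrations against cells in 96-well plates for 48 hours. The concentration for full growth arrest is given as TGI.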

Columns and labels:
Assay in all cases: NCI anticancer screen, dose series, 48 h
[1] = test system: OVCAR-3 ovarian
[2] = test system: OVCAR-8 ovarian
[3] = test system: MCF7 breast
[4] = test system: A498 renal
[5] = test system: K-562 leukemia
[6] = test system: UACC-257 melanoma
[7] = test system: SN12C renal
[8] = test system: SNB-19 CNS
[9] = test system: HS 578T breast
[10] = test system: SF-295 CNS
[11] = test system: 786-0 renal
[12] = test system: NCI/ADR-RES ovarian
[13] = test system: OVCAR-5 ovarian
[14] = test system: MDA-MB-435
[15] = test system: TK-10 renal
[16] = test system: U251 CNS
[17] = test system: SF-268 CNS
[18] = test system: M14 melanoma
[19] = test system: BT-549 breast
[20] = test system: HL-60(TB) leukemia
[21] = test system: COLO 205 colon
[22] = test system: NCI-H460 lung
[23] = test system: SK-MEL-2 melanoma
[24] = test system: HCT-15 colon
[25] = test system: CCRF-CEM leukemia
[26] = test system: MDA-N
[27] = test system: OVCAR-4 ovarian
[28] = test system: IGROV1 ovarian
[29] = test system: EKVX NSCLC
[30] = test system: UACC-62 melanoma
[31] = test system: SF-539 CNS
[32] = test system: UO-31 renal
[33] = test system: SK-MEL-5 melanoma
[34] = test system: LOX IMVI melanoma
[35] = test system: T-47D breast
[36] = test system: CAKI-1 renal
[37] = test system: RPMI-8226 leukemia
[38] = test system: PC-3 prostate
[39] = test system: MOLT-4 leukemia
[40] = test system: NCI-H226 lung
[41] = test system: SK-OV-3 ovarian
[42] = test system: NCI-H23 lung
[43] = test system: HOP-92 NSCLC
[44] = test system: ACHN renal
[45] = test system: SK-MEL-28 melanoma
[46] = test system: NCI-H522 lung
[47] = test system: HCT-116 colon
[48] = test system: MDA-MB-231 breast
[49] = test system: SNB-75 CNS
[50] = test system: HT29 colon
[51] = test system: A549 NSCLC
[52] = test system: MALME-3M melanoma
[53] = test system: DU-145 prostate
[54] = test system: SW-620 colon
[55] = test system: HCC-2998 colon
[56] = test system: KM12 colon

CC1(C)OCC(C2CCC3(C)C4=CCC5C(C)(C)C(O)CCC5(C)C4CCC23C)CC(O)C1O (stereo unspecified)
TGI [1]: 30 µM | TGI [2]: 33.3 µM | TGI [3]: 47.3 µM | TGI [4]: 42.6 µM | TGI [5]: 21.6 µM | TGI [6]: 30.6 µM | TGI [7]: 36.2 µM | TGI [8]: 29.5 µM | TGI [9]: 44.7 µM | TGI [10]: 35.6 µM | TGI [11]: 28.7 µM | TGI [12]: 39.5 µM | TGI [13]: 36.2 µM | TGI [14]: 31.8 µM | TGI [15]: 28.7 µM | TGI [16]: 31.3 µM | TGI [17]: 37.6 µM | TGI [18]: 35.4 µM | TGI [19]: 32.9 µM | TGI [20]: 56.7 µM | TGI [21]: 43.5 µM | TGI [22]: 41.4 µM | TGI [23]: 32.5 µM | TGI [24]: 32.8 µM | TGI [25]: 68.7 µM | TGI [26]: 34.5 µM | TGI [27]: 32.3 µM | TGI [28]: 33.1 µM | TGI [29]: 28.5 µM | TGI [30]: 29.1 µM | TGI [31]: 39.9 µM | TGI [32]: 33.2 µM | TGI [33]: 28.7 µM | TGI [34]: 31.7 µM | TGI [35]: 23.8 µM | TGI [36]: 27.5 µM | TGI [37]: 48.6 µM | TGI [38]: 26.6 µM | TGI [39]: 35.9 µM | TGI [40]: 32.9 µM | TGI [41]: 35.5 µM | TGI [42]: 38.2 µM | TGI [43]: 36.4 µM | TGI [44]: 45.9 µM | TGI [45]: 32.6 µM | TGI [46]: 36.3 µM | TGI [47]: 27.3 µM | TGI [48]: 35.7 µM | TGI [49]: 29 µM | TGI [50]: 33.4 µM | TGI [51]: 36 µM | TGI [52]: 30.6 µM | TGI [53]: 29 µM | TGI [54]: 37.4 µM | TGI [55]: 32.3 µM | TGI [56]: 28.1 µM
